Reference: US20160040215A1, “Methods for Pathogen Detection and Enrichment from Materials and Compositions” (priority 2013, published 2016)
Converted amounts (≈) assume the structure as drawn. Read-outs that look alike come from different tables or passages of the source.

Columns and labels:
[1] = tested on: viable cells of fecal suspension
[2] = tested on: M. morganii and P. pennerii isolates; test: microbe, parasite or virus in culture; type: cell-based
ethanol treated spores = test: Germination of ethanol treated spores with germinants, CFU on plate media; conditions: 2 ug/ml; plated on Sweet B or M2GSC media, single donor, FIG. 9

With `CCO` [Ethanol, ethanol] the “reduction of the number of viable cells” value [1] was “approximately 4 logs”.
`C[C@@H](O)[C@H]1C(=O)N2C(C(=O)O)=C(SCCN=CN)C[C@H]12` [imipenem] gave an MIC [2] of 4 to 8 µg/mL and an MIC ([2]; Morganella morganii) of 2 to 4 µg/mL (≈ 6.68 to 13.4 µM).
With lysozyme the “effect of addition to the plates on CFU, in words” value (ethanol treated spores) was “small effect”.
